Data from ChEMBL document CHEMBL4024733, “An unusual spinaceamine-bearing pregnane from a soft coral Scleronephthya sp. inhibits the migration of tumor cells” (Bioorg Med Chem Lett, 2017).

Experiments:
Assay type in all cases: functional, cell-based
[1] = tested on: B16; experiment: Antimigratory activity against mouse B16 cells after 24 hrs by crystal violet staining based inverted microscopic method
[2] = tested on: A549; experiment: Antimigratory activity against human A549 cells after 24 hrs by crystal violet staining based inverted microscopic method
[3] = tested on: B16; experiment: Antimigratory activity against mouse B16 cells assessed as decrease in TGFbeta mRNA level by SYBR staining based real-time qPCR assay
[4] = tested on: B16; experiment: Antimigratory activity against mouse B16 cells assessed as decrease in TNFalpha mRNA level by SYBR staining based real-time qPCR assay
[5] = tested on: B16; experiment: Antimigratory activity against mouse B16 cells assessed as decrease in IL-1beta mRNA level by SYBR staining based real-time qPCR assay
[6] = tested on: B16; experiment: Antimigratory activity against mouse B16 cells assessed as decrease in IL-6 mRNA level by SYBR staining based real-time qPCR assay
[7] = tested on: B16; experiment: Antimigratory activity against mouse B16 cells assessed as inhibition of MMP2 mRNA level after 24 hrs by SYBR staining based real-time qPCR assay; conditions: B16, 24 h
[8] = tested on: B16; experiment: Antimigratory activity against mouse B16 cells assessed as inhibition of MMP9 mRNA level after 24 hrs by SYBR staining based real-time qPCR assay; conditions: B16, 24 h
[9] = tested on: B16; experiment: Antimigratory activity against mouse B16 cells assessed as inhibition of VEGF mRNA level after 24 hrs by SYBR staining based real-time qPCR assay; conditions: B16, 24 h

| SMILES | Activity [1] | Activity [2] | Activity [3] | Activity [4] | Activity [5] | Activity [6] | IC50 [7] | IC50 [8] | IC50 [9] |
| --- | --- | --- | --- | --- | --- | --- | --- | --- | --- |
| C=C[C@H]1CC[C@H]2[C@@H]3CC[C@H]4CC(=O)/C(=C5\NCCc6nc[nH]c65)C(=O)[C@]4(C)[C@H]3CC[C@]12C | Dose-dependent effect | Dose-dependent effect | Dose-dependent effect | Dose-dependent effect | Dose-dependent effect | Dose-dependent effect | 6.6 µM | 5.3 µM | 8.4 µM |
| C=C[C@H]1CC[C@H]2[C@@H]3CC[C@H]4CC(=O)/C(=C5\NC=Cc6nc[nH]c65)C(=O)[C@]4(C)[C@H]3CC[C@]12C | Dose-dependent effect | Dose-dependent effect | Dose-dependent effect | Dose-dependent effect | Dose-dependent effect | Dose-dependent effect | 5.8 µM | 12.4 µM | 7.6 µM |
